The values below come from publication PMC10254657, “Efficient pH-Responsive Nano-Drug Delivery System Based on Dynamic Boronic Acid/Ester Transformation” (Molecules, 2023).

The subject of one series is DU145 tumor xenografts. In words: TUNEL assay of the tumors. Format: in vivo, BALB/c nude mice. As to conditions: compared with PBS; tumors excised at 15 d. The source says:
The tumor tissue and other organs from the sacrificed mice were excised at 15 d of the treatments with various drugs. After being fixed in n 4% formaldehyde, dehydrated with ethanol, and embedded in paraffin, the tumor tissue and organs were further sectioned into 5 μm slices for hematoxylin and eosin (H&E) staining and the terminal deoxynucleotidyl transferase-mediated dUTP nick-end labeling (TUNEL) staining assay. The H&E-stained tissues and TUNEL-stained tissues were imaged by fluorescence microscopy (NIKON ECLIPSE C1, Tokyo, Japan).

The next series concerns human DU145 tumor model. To be noted: 7.5 mg/kg i.v. on days 0, 3 and 6.
In another series the test system is DU145 cells. In words: In vitro cytotoxicity by MTT assay. The series is classed as cell-based. To be noted: Homo sapiens, DU-145, 24 h (Figure 5 legend) / 48 h (method), read-out: half-maximal inhibitory concentrations (IC50). The protocol:
Human prostate cancer cells (DU145) were cultivated in DMEM supplemented with fetal bovine serum (FBS, 10%), streptomycin (100 μg/mL), and penicillin (100 units/mL). The cells were incubated in a humid atmosphere with 5% CO2 at 37 °C.
The in vitro cytotoxicities of PTX-loaded NPs were measured by MTT assays. Cells were seeded in 96-well plates (5000–8000 cells per well) and incubated at 37 °C. After 24 h, the medium was replaced with 180 μL of fresh medium, and the cells were treated with serial dilutions of PTX/PBA NPs, PTX/mPEG-PAL NPs, blank PBA NPs, and blank mPEG-PAL NPs (20 μL) for 48 h at 37 °C. At the end of the incubation, to each well was added […] of MTT solution (5 mg/mL in PBS). After 4 h, the MTT solution was removed from the wells, followed by the addition of supplementary DMSO (100 μL) to dissolve the purple MTT formazan crystals. The absorbance of each well was determined at 490 nm on a microplate reader (Flexstation 3, Molecular Devices LLC, Sunnyvale, CA, USA).

Series [1] in a line: Body weight of tumor-bearing mice during treatment. The series is classed as in vivo, BALB/c nude mice. As to conditions: 7.5 mg/kg i.v. on days 0, 3 and 6.
Experimental: (§1) BALB/c nude mice (4–5 weeks old) were used for the evaluation of the antitumor activities of the nanotherapies. The human prostate cancer cell line DU145 was grown to 80% confluence in 90 mm tissue culture dishes. After cell harvesting, the cells were resuspended in PBS at 4 °C to reach a final concentration of 1.5 × 10^7 cells/mL. The right flanks of the BALB/c nude mice were subcutaneously injected with 200 μL of a cell suspension containing 3 × 10^6 cells. At 4 days after implantation, the tumors reached approximately 150 mm^3 in volume, and then the mice were randomly divided into four groups (n = 6 mice per group). Mice bearing DU145 tumor xenografts were injected intravenously with PBS, Taxol, PTX/PBA NPs, and PTX/mPEG-PAL NPs at 7.5 mg/kg three times on days 0, 3, and 6. Tumor volumes and body weights were monitored and recorded once every three days. The lengths (L) and widths (W) of the tumors were measured with calipers, and the tumor volume was calculated by the following formula: V = (L × W^2)/2, where W is shorter than L.
The nature of series [2]: In vivo pharmacokinetics after intravenous administration. To be noted: ICR mice. As to the method:
Pharmacokinetics was evaluated in ICR mice (about 20 g). […] A total of 0.1 mL of fresh blood was collected through orbital at appropriate intervals, put into a centrifuge tube pretreated with heparin sodium, and centrifugated (5000 rpm, 10 min). A total of 100 µL acetonitrile was added to 50 µL of supernatant collected to extract PTX and precipitate protein in serum, and the mixture was centrifugated for another 10 min (1200 rpm). The amounts of PTX in the collected supernatant were determined by HPLC (acetonitrile:water = 50:50 (v:v); flow rate: 1.0 mL/min; wavelength: 227 nm).

Experimental for human DU145 tumor model: as §1

On to `CC(=O)O[C@H]1C(=O)[C@@]2(C)[C@H]([C@H](OC(=O)c3ccccc3)[C@]3(O)C[C@H](OC(=O)[C@H](O)[C@@H](NC(=O)c4ccccc4)c4ccccc4)C(C)=C1C3(C)C)[C@]1(OC(C)=O)CO[C@@H]1C[C@@H]2O` [Taxol, Paclitaxel], for which the “cell apoptosis rate in tumors (TUNEL)” value in the series with DU145 tumor xenografts was “dramatic increase”. Also, in the series with human DU145 tumor model (end of treatment), the “therapeutic efficacy (tumor photograph and weight at the end of treatment)” value is given as “better therapeutic efficacy than PBS”. Moreover, in the series with human DU145 tumor model (first 6 days), the “tumor growth (tumor volume)” value was “completely inhibited”. In the series on DU145 cells, the IC50 amounted to 3.04 nM. The “body weight of mice” value in series [1] is “remained almost unchanged in the first 9 days and then showed a slow uptrend”. In addition, in series [2], the t1/2α is 3.24 min. In addition, in series [2] (mouse, plasma), the AUC(0-inf) is 85.4 ng·h/mL, the AUC(0-t) worked out at 67.5 ng·h/mL and the highest level (Cmax) was 94.6 ng/mL. Besides, the half-life in series [2] (mouse, plasma, read-out: t1/2β (converted)) was 26 min.

In general, AUC(0-inf) refers to the area under the concentration-time curve extrapolated to infinity. A word on the AUC(0-t): it is exposure summed from dosing to a finite time, without extrapolation to infinity. A lower AUC(0-t) goes with low exposure. Broadly, the Cmax is the highest concentration seen after dosing.
